The results in this text go back to PubChem BioAssay (NCI).

Where “and” joins values, the source holds several entries; their conditions need not be identical. Equal values may be shown once.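 Cultured in 96-well plates, cells were exposed to test compound for 48 hours across five concentrations. Here, GI50 denotes the concentration required for 50% inhibition of growth. Definition used: TGI = concentration required for complete inhibition of growth.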 Some results are limits rather than exact numbers.

This assay deals with MDA-MB-468 breast. Description: NCI-60 cell line screen, 48 h.
For the molecule `CC(C)(C)OC(=O)Nc1ccc2c(c1)C(NC(=O)Nc1cccc(C#N)c1)CC(C)(C)O2` (stereo not drawn), the GI50 was 381 nM and the TGI was found to be 9900 nM.
Regarding `CNC(=O)c1ccccc1Nc1nc(Nc2ccc3c(c2OC)CCC[C@H](N2CCN(CCO)CC2)C3)ncc1Cl`, the GI50 is 1210 nM and 696 nM; the TGI was 3330 nM and 2500 nM.
In the case of `CCCCn1c(=O)c(/C=C/C(=O)/C=C/c2cc3ccccc3n(CCCC)c2=O)cc2ccccc21`, the GI50 was 1640 nM and the TGI turned out to be 3760 nM.
As for `O=P(O)(O)OCC1OC(n2cnc3c(NCc4ccccc4)ncnc32)C(O)C1O` (stereo not drawn), the GI50 is 925 nM and the TGI was 4120 nM.
For `COC[C@]12CCC(C)(C)C[C@H]1C1=CC[C@@H]3[C@@]4(C)CCCNC(C)(C)[C@@H]4CC[C@@]3(C)[C@]1(C)CC2`, in that order: 1530 nM and 3230 nM.
With `CNC(=O)c1cncc(/C=C/c2ccccc2Cl)c1`, the GI50 was 9170 nM and the TGI was above 25000 nM.
For `CS(=O)(=O)N(c1cc(-c2ccc3ncnc(Nc4ccc(F)c(Cl)c4)c3c2)cnc1Cl)S(C)(=O)=O`, in that order: 467 nM and 2550 nM.
As for `CC[C@H](C)[C@H](NC(=O)c1cccn1C)C(=O)N(C)[C@H](C[C@@H](OC(C)=O)c1nc(C(=O)N[C@@H](Cc2ccccc2)C[C@H](C)C(=O)OC)cs1)C(C)C`, the GI50 is 68.3 nM and the TGI amounted to 10800 nM.
As to `Cc1cc(O)c(-c2ccc([C@@H](C)CN(C)C)cc2)c2c1[nH]c(=O)c1sccc12`, the GI50 was 514 nM and the TGI is 3940 nM.
Consider `O=C(Nc1cccc(C(F)(F)F)c1)Oc1ccc(Cl)c2cccnc12`, for which the GI50 is 1790 nM and the TGI worked out at 4280 nM.
With `COc1cc2nccc(Oc3ccc(NC(=O)c4cn(C(C)C)c(=O)n(-c5ccc(F)cc5)c4=O)cc3F)c2cc1OC`, the GI50 was above 100000 nM and the TGI was above 100000 nM.
Take `c1ccc2c(c1)cc1ccc3cccc4ccc2c1c34`: the GI50 was 157 nM and the TGI was 312 nM.
For `CC/C(=C/c1ccc(OC)cc1OC)[N+](=O)[O-]`, in that order: 2020 nM and 4300 nM.
`CCn1c2ccccc2c2cc(C(=O)c3ccc(C)c4ccccc34)ccc21`: the GI50 is 291 nM and the TGI is 918 nM.
Regarding `Nc1cccc2c1C(=O)c1cccc(NC(=O)c3ccccc3)c1C2=O`, the GI50 is 577 nM and the TGI worked out at 7030 nM.
For `COc1ccc(S(=O)(=O)N(C(C)=O)c2ccccc2/C=C/c2cc[n+]([O-])cc2)cc1`, in that order: 461 nM and above 10000 nM.
Consider `Cc1ccc(C(=O)NC2CC2)cc1-c1ccc2[nH]ncc2c1`, for which the GI50 was above 23000 nM and the TGI is above 25000 nM.
In the case of `COC(=O)[C@H](Cc1cn(C)cn1)NC(=O)[C@H](Cc1ccccc1)NC(=O)Nc1cc(C(F)(F)F)cc(C(F)(F)F)c1`, the GI50 was 4400 nM and 4230 nM; the TGI is 17700 nM.
For `CC(C)c1ccc(NC(=O)Cc2ccc(Nc3ncnc4cc(-c5cnn(CCN(C)C)c5)ccc34)cc2)cc1`, the GI50 is 1340 nM and the TGI stood at 3720 nM.
As for `COC(=O)N[C@H]1CCc2c(Cl)c(OC)c(OC)c(OC)c2-c2ccc(SC)c(=O)cc21`, the GI50 is below 10 nM and the TGI was 23100 nM.
For `CCn1c(-c2nonc2N)nc2c(N3CCCC3)nccc21`, in that order: 8920 nM and above 25000 nM.
In the same order, the values of `COc1cc(NCCCCCN=C(N)NC(N)=NC(C)C)c2ncccc2c1` are 90.3 nM and 594 nM.
On to `ClC(Cl)c1nc(-c2cccs2)n2nc(-c3ccccc3)cc2n1`, for which the GI50 was 224 nM and the TGI stood at 688 nM.
For `O=c1[nH]c(=O)n(C2CC(O)C(CO)O2)cc1C(F)(F)F` (stereo not drawn), the GI50 is above 85400 nM and the TGI was above 100000 nM.
In the same order, the values of `CC(C)(C)OC(=O)N[C@@H](Cc1ccccc1)C(=O)N(Cc1ccccc1)C1(C(=O)NCc2ccccc2)CCN(Cc2ccccc2)CC1` are 1620 nM and 5910 nM.
For `COc1cc(C(=O)c2cocc2C(=O)c2ccc3c(c2)OCO3)cc(OC)c1OC`, in that order: 4050 nM and above 100000 nM.
For `C=C1CCC2C3(C)COC(c4ccccc4Cl)OC3CCC2(C)C1/C=C/C1=CCOC1=O` (stereo not drawn), in that order: 4960 nM and above 100000 nM.
Regarding `C[N+](C)=c1ccc2nc3c(cc(NCCCNc4cc5oc6cc(=[N+](C)C)ccc-6nc5c5ccccc45)c4ccccc43)oc-2c1`, the GI50 was 193 nM and the TGI amounted to 1350 nM.
In the same order, the values of `O=C(/C=C/C12c3ccccc3C(c3ccccc31)C1C(=O)NC(=O)C12)c1ccccc1` (stereo not drawn) are 1720 nM and 3680 nM.
In the same order, the values of `CCN(CC)CCCCNc1c2ccc(Cl)cc2nc2ccc(OC)cc12` are 317 nM and 1830 nM.
For `C=C(C)[C@@H]1CC[C@]2(C(=O)NS(=O)(=O)c3ccccc3)CC[C@]3(C)[C@H](CC[C@@H]4[C@@]5(C)CC[C@H](OC(=O)NS(=O)(=O)c6ccccc6)C(C)(C)[C@@H]5CC[C@]43C)[C@@H]12`, in that order: 2220 nM and 10200 nM.
Consider `COc1ccc2nc3cc(Cl)ccc3c(Nc3cc(CN4CCCC4)c(O)c(CN4CCCC4)c3)c2n1`, for which the GI50 is 1330 nM and the TGI was 2760 nM.
In the same order, the values of `COc1ccc2[nH]c(C(=O)OCc3ccc4c(Cl)cc(Cl)c(O)c4n3)cc2c1` are 1360 nM and 2770 nM.
In the case of `O=C1c2cc3c(cc2-c2c1c1ccc(Cl)cc1c(=O)n2CCCn1ccnc1)OCO3`, the GI50 was below 10 nM and the TGI was 14.4 nM.
